Results: patent publication US20250170110A1, “LYMPHATIC TARGETED ANTI-COAGULANT FOR THE PREVENTION OF LYMPHATIC THROMBOSIS” (THE TRUSTEES OF THE UNIVERSITY OF PENNSYLVANIA, priority 2022, published 2025)

Test system: gut lymphatic clotting
Assay: lymphatic clots in mice with induced deletion of lymphatic endothelial thrombomodulin (THBD)
Assay type: in vivo
Conditions: oral warfarin in water, 3 weeks after induction
Source text: FIGS. 7A-7C show oral delivery of warfarin prevents lymphatic clots in mouse model of lymphothrombosis. […] P-values are indicated by asterisks as follows: ***p<0.001.
However, dosing with existing antithrombotic drugs will confer systemic anticoagulation, with established significant risks of bleeding throughout the body, including in the gut and brain. […] Therefore, there is a clear need for a functional antithrombotic drug that can be delivered and act preferentially to the gut lymphatics at a therapeutic dose. In addition, the volume of lymphatic fluid in the gut is much less than the volume of blood in the body, which means that a therapeutic dose of drug directly to the gut lymphatics will be massively diluted once it reaches the blood stream to well below therapeutic levels, thereby preventing systemic anticoagulation and inappropriate bleeding.

Structure (SMILES): CC(=O)CC(c1ccccc1)c1c(O)c2ccccc2oc1=O (stereo not shown) [warfarin]
- lymphatic clotting (fibrin positive lymphatic vessels): prevented lymphatic clotting
